Laboratory results as given in article PMC7288058, “Modulating the Properties of Fe(III) Macrocyclic MRI Contrast Agents by Appending Sulfonate or Hydroxyl Groups” (Molecules, 2020).
Several values for one entry are separate records, joined by “and”; a condition that tells them apart may be missing. Identical values can stand only once.

Columns and labels:
[1] = target: T1, human serum albumin (HSA) (Homo sapiens, UniProt P02768); test: Binding to human serum albumin by ultrafiltration / ICP-MS; type: in vitro ADME; conditions: 0.4 mM complex, HSA 4.5% (w/v) (0.7 mM), 20 mM HEPES pH 7.4, 100 mM NaCl, 37 °C, 20 min
T1 construct: Albumin from human serum (fatty acid free) was purchased from Sigma-Aldrich; purchased Sigma-Aldrich; host or cells: purified from human serum
T1 sequence (P02768 25-609): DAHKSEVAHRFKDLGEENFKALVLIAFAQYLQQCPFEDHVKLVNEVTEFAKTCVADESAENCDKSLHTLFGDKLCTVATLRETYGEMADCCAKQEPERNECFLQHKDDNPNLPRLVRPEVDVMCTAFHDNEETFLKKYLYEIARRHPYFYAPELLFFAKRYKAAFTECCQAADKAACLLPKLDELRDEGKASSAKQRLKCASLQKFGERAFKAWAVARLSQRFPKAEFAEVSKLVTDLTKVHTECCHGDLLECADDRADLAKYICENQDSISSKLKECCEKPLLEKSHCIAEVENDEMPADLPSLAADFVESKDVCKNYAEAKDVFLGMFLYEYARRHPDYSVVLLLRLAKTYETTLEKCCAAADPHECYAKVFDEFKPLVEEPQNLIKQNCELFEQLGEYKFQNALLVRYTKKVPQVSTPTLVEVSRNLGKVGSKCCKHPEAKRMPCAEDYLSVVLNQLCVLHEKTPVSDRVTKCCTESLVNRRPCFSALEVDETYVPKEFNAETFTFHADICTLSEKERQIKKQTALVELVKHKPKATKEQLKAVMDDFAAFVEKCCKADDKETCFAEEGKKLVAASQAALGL
Experimental: Binding of the Fe(III) complexes to human serum albumin (HSA) was studied by using ultrafiltration across a MW 5000 cutoff membrane. The solutions containing HEPES buffer (pH 7.4) and salt NaCl were incubated at 37 °C for 20 min. Solutions contained 0.4 mM Fe(III) complex and 4.5 % (w/v) HSA (0.7 mM). The binding percentages were measured by using ICP-MS to analyze the Fe concentration in the unbound complex solutions after HSA incubation (Table 1). The protein binding for Fe(L3)(OH2) was higher (75%) than for Fe(L1)(OH2) (37%) or Fe(L2) (11%).
The molecular weight of 66,435 Da was used to determine the molar concentrations of HSA. Fe(III) complex (0.400 mM) solutions were incubated with 4.5% (w/v) HSA in 0.100 M NaCl and 20.0 mM HEPES buffer (pH 7.4). All solutions were incubated at 37 °C for 20 min [42]. Aliquots (0.300 mL) were placed in ultra-centrifugal filter units with a 5-kDa membrane and centrifuged at 3500× g for 10 min. The filtrates were used to determine Fe concentration from digested unbound Fe(III) complexes by using ICP-MS.

[2] = pH-potentiometric titrations of the intact Fe(III) complexes; type: physicochemical; conditions: potentiometric titration, 25 °C, 0.10 M NaCl, 1–2 mM meglumine
Text: The pH-potentiometric titrations of the intact Fe(III) complexes were studied to determine the equilibrium constants for deprotonation of ligand groups such as the hydroxyl pendants or water ligand. […] For Fe(L1)(OH2) and Fe(L3)(OH2), either an alcohol pendant group or water ligand might ionize but, for Fe(L2), we only consider alcohol pendant groups. […] Ionization of the water ligand at near neutral pH cannot be ruled out, but is not considered to be likely based on prior studies [19]. […] The group that produces this ionization is not likely to be a bound water or hydroxyl group given that the coordination sphere is very similar to that of Fe(L3)(OH2). […] A weak hydrogen bonding interaction to a hydroxyl pendent or bound water might produce such an environment.
All solutions were prepared by using carbonate-free water.
Fe(L1)(OH2): The solution contained 0.527 mM Fe(III) complex added as the chloride salt, 1.00 mM meglumine, 0.100 M NaCl, and 3.72 mM HCl to decrease the pH of the solution to pH 3 in total volume of 20.00 mL. The solution was titrated with a 98.83 mM NaOH solution. Then, 5.00 µL aliquots of the NaOH solution were added over 60 s with an interval of 300 s using a Nexus 3000 High Flow Syringe Pump from Chemyx Inc (Stafford, TX, USA) equipped with a 10-mL Hamilton gastight syringe.
Fe(L2): The solution contained 0.75 mM Fe(III) complex added as the chloride salt, 2.00 mM meglumine, 0.100 M NaCl, and 6.00 mM HCl to decrease the pH of the solution to pH 3 in total volume of 25.00 mL. The solution was titrated with a 94.86 mM NaOH solution. Then, 5.00 µL aliquots of the NaOH solution were added over 60 s with an interval of 300 s using a Nexus 3000 High Flow Syringe Pump from Chemyx Inc (Stafford, TX) equipped with a 10-mL Hamilton gastight syringe.
In all fits of the data, meglumime was used as a third reagent, and the equilibrium equation corresponding to its ionization was added to the model data fit as determined from separate titrations. The titration was completed under Ar(g) at 25 °C. The titrations were monitored from pH 3 to pH 11. Equilibrium constants for all complexes were determined by fitting the data using [sequence] 2013 Version 6.0.1. Speciation diagrams were plotted by utilizing HySS Version 4.0.31.

[3] = Kinetic inertness / dissociation monitored by UV-Vis absorbance; type: physicochemical; conditions: 100 mM HCl, 37 °C
Experimental: The complexes have electronic absorbance bands at 325 nm and 330 nm with extinction coefficients ranging from 1570 M^−1∙cm^−1 to 3800 M^−1∙cm^−1 (Figures S16–S21, Table S2, Supplementary Materials). These absorbance peaks were monitored to study the dissociation of the complexes in 100 mM HCl acid solution, or in solutions containing 25 mM hydrogen carbonate and 0.40 mM hydrogen phosphate at 37 °C. […] In acidic solution (100 mM HCl), the dissociation of Fe(L1)(OH2) was estimated as 18.1% over 24 h and 53.6% over 72 h based on absorbance changes. For comparison, the dissociation of the Fe(L2) complex in acidic solution (100 mM HCl) was 7.9% over 48 h, and the dissociation of Fe(L3)(H2O) was 14% over 24 h and 38% over 72 h.
Absorbance of Fe(III) complexes was measured from 200–800 nm over a period of 48 and 72 h. A Peltier temperature controller was used to keep the temperature at 37 °C. The sample solutions contained 0.200 mM Fe(III) complex. Solutions for kinetic inertness experiments contained 25.0 mM NaHCO3, […] Na2HPO4, and 10.0 mM HEPES buffer (pH 7.4). Acidic solutions for the kinetic inertness experiments contained 0.10 M HCl. For each of these experiments, extinction coefficients were determined by using by using the Beer–Lambert law as given in Table S2 (Supplementary Materials).

[4] = 1-octanol/water partition coefficient (log P) by ICP-MS; type: physicochemical; conditions: 20 mM HEPES pH 7.4, 100 mM NaCl
[5] = system: Balb/c mice; test: Dynamic T1-weighted MRI in mice after tail vein injection (4.7 T); type: in vivo
Text: The two new Fe(III) complexes, Fe(L1)(OH2) and […], and the Gd(III) agent, Gd(DOTA), were studied in Balb/c mice on a small animal 4.7-T MRI scanner upon tail vein injection of the agent (Figure S24, Supplementary Materials). […] Biodistribution and pharmacokinetic clearance of the complexes in mice were monitored by using dynamic MRI.
In vivo imaging studies with the Fe(III) complexes were studied on at 4.7 T Bruker preclinical MRI in mice (BABC/cJ, Jackson Laboratory) in accordance with approved Institutional Animal Care and Use Committee (IACUC) protocols. The samples with a concentration of 0.050, 0.100, and 0.200 mmol [Fe]/kg. The Fe(III) complex stock solutions were adjusted to pH 7.2 by addition of meglumine and were injected intravenously via tail vein. MR data were recorded continuously for up to 1 h. Distribution studies and clearance kinetics were studied by using MR data acquired over several time points for up to 1 h, and additionally at 4 h and 24 h. For comparison, The Food and Drug Administration (FDA)-approved MRI contrast agent gadopentetate dimeglumine (Gd(DTPA), Magnevist®) and gadoterate meglumine (Gd(DOTA), Dotarem®) were injected at 50.0 μmol [Gd]/kg into separate group of mice and imaged as above.

Structure (SMILES) | HSA Binding (%) [1] | Log K1 (pKa2) [2] | Log K2 (pKa1) [2] | dissociation in acidic solution ([3]; over 24 h, estimated from absorbance changes) [%] | dissociation in acidic solution ([3]; over 72 h, estimated from absorbance changes) [%] | Log P [4] | kidney contrast enhancement in T1-weighted images ([5]; 0.20 mmol/kg, 5 min post-injection) | clearance pathway ([5]; Balb/c mice, dynamic MRI) | tolerability in mice ([5]; mouse, in vivo) | dissociation in acidic solution ([3]; over 48 h) [%] | T1-weighted contrast enhancement compared with other agents ([5]; healthy mouse, 0.05 mmol/kg, kidneys/blood, up to 45 min)
C[C@H]([O-])CN1CCN(CCCS(=O)(=O)[O-])CCN(C[C@H](C)O)CC1.O.[Fe+3] [Fe(L1)(OH2)] | 37% and 36.8 ± 0.2% | 7.55 ± 0.08 | 3.39 ± 0.17 | 18.1 | 53.6 | −1.67 | Enhancement of kidney contrast was observed | cleared predominately by the renal system | tolerated well |  | 
C[C@H]([O-])CN1CCN(C[C@H](C)O)CCN(C[C@H](C)O)CC1.[Fe+3] [Fe(L2)] | 11% and 11.2 ± 2.8% | 11.78 ± 0.11 | 6.57 ± 0.05 |  |  | −1.60 ± 0.1 |  |  |  | 7.9 | slightly more enhanced contrast in kidneys and blood than Fe(L1)(OH2) or the Gd(III) complexes
